For assay [1], the target named is T1, Glucose-dependent insulinotropic receptor (Homo sapiens, UniProt Q8TDV5).
T1 sequence (Q8TDV5 whole entry): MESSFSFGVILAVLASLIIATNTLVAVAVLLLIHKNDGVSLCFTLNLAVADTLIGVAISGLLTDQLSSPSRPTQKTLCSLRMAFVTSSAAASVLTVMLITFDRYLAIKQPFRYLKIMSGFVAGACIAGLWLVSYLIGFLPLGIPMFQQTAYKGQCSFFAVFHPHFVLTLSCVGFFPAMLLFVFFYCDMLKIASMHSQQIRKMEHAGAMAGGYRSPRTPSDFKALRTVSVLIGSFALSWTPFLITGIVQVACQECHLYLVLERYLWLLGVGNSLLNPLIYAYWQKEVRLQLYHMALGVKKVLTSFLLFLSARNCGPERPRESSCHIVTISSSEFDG
Briefly: Agonist activity at human GPR119 expressed in HEK293 cells assessed as stimulation of cAMP level measured after 60 mins by HTRF assay. It counts as functional, cell-based. In general terms: Cyclic AMP is a second messenger, typically raised through Gs and lowered through Gi signalling.

The target of assay [2] is T2, Glucose-dependent insulinotropic receptor (Homo sapiens) (UniProt Q8TDV5).
T2 sequence (whole entry): T1 sequence (Q8TDV5 whole entry)
In words: Agonist activity at human GPR119 expressed in HEK293 cells assessed as stimulation of cAMP level measured after 60 mins by HTRF assay relative to OEA. Type of assay: functional, cell-based.

Drawing on ChEMBL document CHEMBL3868606, “Novel 5-nitropyrimidine derivatives bearing endo-azabicyclic alcohols/amines as potent GPR119 agonists” (Bioorg Med Chem, 2017), this text covers EC50 and Emax for 17 molecules.

The term EC50 denotes the concentration giving half of the maximal effect. One may read the Emax as the maximal effect, on the per cent scale that the assay sets.

Bounds are passed on as bounds.

For the molecule `CS(=O)(=O)c1ccc(Nc2ncnc(OC3C[C@H]4CC[C@H](C3)N4S(=O)(=O)c3ccc(F)cc3)c2[N+](=O)[O-])c(F)c1` (some centres undefined), the EC50 in assay [1] came to 3.5 nM. Also, the Emax in assay [2] worked out at 88.8%.
Take `CC(C)OC(=O)N1[C@@H]2CC[C@@H]1CC(Oc1ncnc(Nc3ccc(S(C)(=O)=O)cc3F)c1[N+](=O)[O-])C2` (relative stereo): in assay [1], the EC50 is 0.6 nM. Also, in assay [2], the Emax turned out to be 103%.
On to `CCOC(=O)N1[C@@H]2CC[C@@H]1CC(Nc1ncnc(Nc3ccc(S(C)(=O)=O)cc3F)c1[N+](=O)[O-])C2` (relative stereo), for which, in assay [1], the EC50 is over 2000 nM. Moreover, the Emax in assay [2] came out at 32.5%.
With `CS(=O)(=O)c1ccc(Nc2ncnc(NC3C[C@H]4CC[C@H](C3)N4C(=O)OCC3CC3)c2[N+](=O)[O-])c(F)c1` (relative stereo), the EC50 in assay [1] was over 2000 nM. The Emax in assay [2] is 25.1%.
In the case of `CCOC(=O)N1[C@@H]2CC[C@@H]1CC(Oc1ncnc(Nc3ccc(S(C)(=O)=O)cc3F)c1[N+](=O)[O-])C2` (relative stereo), the EC50 in assay [1] was found to be 1.4 nM. Moreover, in assay [2], the Emax amounted to 116%.
Take `CC(C)(C)OC(=O)N1[C@@H]2CC[C@@H]1CC(Nc1ncnc(Oc3ccccc3Cl)c1[N+](=O)[O-])C2` (relative stereo): in assay [1], the EC50 is over 2000 nM. Moreover, the Emax in assay [2] is 37.2%.
For the molecule `CC(C)(C)OC(=O)N1[C@@H]2CC[C@@H]1CC(Nc1ncnc(Nc3ccc(C#N)cc3Cl)c1[N+](=O)[O-])C2` (relative stereo), the EC50 in assay [1] stood at 205 nM. Besides, the Emax in assay [2] was determined as 59%.
As for `CC(C)(C)OC(=O)N1[C@@H]2CC[C@@H]1CC(Oc1ncnc(Nc3ccc(S(C)(=O)=O)cc3F)c1[N+](=O)[O-])C2` (relative stereo), the EC50 in assay [1] worked out at 1.5 nM. Besides, the Emax in assay [2] worked out at 116%.
Turning to `CS(=O)(=O)c1ccc(Nc2ncnc(OC3C[C@H]4CC[C@H](C3)N4C(=O)OCC3CC3)c2[N+](=O)[O-])c(F)c1` (relative stereo), in assay [1], the EC50 was over 2000 nM. For the same molecule, the Emax in assay [2] was 21.3%.
`CS(=O)(=O)c1ccc(Nc2ncnc(NC3C[C@H]4CC[C@H](C3)N4S(=O)(=O)c3ccc(F)cc3)c2[N+](=O)[O-])c(F)c1` (some centres undefined): the 50% effective concentration (EC50) in assay [1] was over 2000 nM. In addition, the Emax in assay [2] came out at 24.8%.
For the molecule `CC(C)OC(=O)N1[C@@H]2CC[C@@H]1CC(Nc1ncnc(Nc3ccc(S(C)(=O)=O)cc3F)c1[N+](=O)[O-])C2` (relative stereo), the EC50 in assay [1] came out at 6.2 nM. In addition, the Emax in assay [2] was determined as 54.5%.
With `CC(C)(C)OC(=O)N1[C@@H]2CC[C@@H]1CC(Nc1ncnc(Nc3ccccc3C#N)c1[N+](=O)[O-])C2` (relative stereo), the EC50 in assay [1] was over 2000 nM. The Emax in assay [2] was 46.2%.
The corresponding values for `CS(=O)(=O)c1ccc(Nc2ncnc(NC3C[C@H]4CC[C@H](C3)N4S(C)(=O)=O)c2[N+](=O)[O-])c(F)c1` (relative stereo) are over 2000 nM and 49.5%.
Consider `CC(C)(C)OC(=O)N1[C@@H]2CC[C@@H]1CC(Nc1ncnc(Nc3ccc(C#N)cc3F)c1[N+](=O)[O-])C2` (relative stereo), for which the EC50 in assay [1] was found to be 1.3 nM. In addition, in assay [2], the Emax stood at 114%.
Consider `CS(=O)(=O)c1ccc(Nc2ncnc(OC3C[C@H]4CC[C@H](C3)N4S(C)(=O)=O)c2[N+](=O)[O-])c(F)c1` (relative stereo), for which, in assay [1], the concentration for a half-maximal effect (EC50) is 1.6 nM. In addition, in assay [2], the Emax came out at 117%.
In the case of `CC(C)(C)OC(=O)N1[C@@H]2CC[C@@H]1CC(Oc1ncnc(Oc3ccccc3Cl)c1[N+](=O)[O-])C2` (relative stereo), in assay [1], the EC50 stood at 44.2 nM. Besides, the Emax in assay [2] was determined as 89.8%.
On to `CC(C)(C)OC(=O)N1[C@@H]2CC[C@@H]1CC(Nc1ncnc(Nc3ccc(S(C)(=O)=O)cc3F)c1[N+](=O)[O-])C2` (relative stereo), for which the EC50 in assay [1] turned out to be 1.5 nM. Further, the Emax in assay [2] was found to be 99%.
